Consider 1 compound from PMC9194828, “Chemoenzymatic Synthesis of Asymmetrically Branched Human Milk Oligosaccharide Lacto-N-Hexaose” (Frontiers in Chemistry, 2022).

Structures are written as SMILES.

This experiment concerns the target T1, HP0826 (β1,4-galactosyltransferase) (Helicobacter pylori, UniProt O25500).
T1 construct: gene HP_0826; recombinantly expressed per earlier literature (Fang et al., 2018); used as cell lysate in synthesis
Put plainly: acceptor specificity test. The experiment is classed as cell-based. Conditions: UDP-Gal donor; enzyme preparation not given.

T1 sequence (O25500 entry or part of it): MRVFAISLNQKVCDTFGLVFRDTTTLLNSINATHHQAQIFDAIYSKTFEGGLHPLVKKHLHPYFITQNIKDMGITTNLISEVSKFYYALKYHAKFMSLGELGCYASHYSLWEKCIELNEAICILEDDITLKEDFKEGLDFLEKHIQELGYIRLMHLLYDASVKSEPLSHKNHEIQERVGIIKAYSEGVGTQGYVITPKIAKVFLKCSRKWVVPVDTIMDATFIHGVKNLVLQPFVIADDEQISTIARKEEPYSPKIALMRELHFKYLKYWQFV

Turning to `CC(=O)N[C@H]1[C@H](OCCCCCCN=[N+]=[N-])O[C@H](CO)[C@@H](O)[C@@H]1O` [GlcNAc-C6N3], the acceptor specificity test result is listed as “HP0826 exhibited excellent enzymatic activity on GlcNAc-C6N3”.
